Counter-ions that a name gives are not always drawn. Like-named read-outs stand apart in the source and are kept apart here.
Legend:
[1] = Systemic exposure and pharmacokinetics after single oral gavage dose of 200 mg/kg in fasted male SD rats; type: in vivo, Sprague Dawley (SD) rats; conditions: for Fold difference in plasma concentration compared to micronized free-base form: 30 hours post-dose; for Increase of systemic drug exposure in AUC0-t compared with micro MBX-2982 (free base): equivalent amounts
Method: Two studies were conducted in order to compare the systemic exposure and pharmacokinetics (PK) of microcrystalline MBX-2982 and salt forms of MBX-2982 in fasted male Sprague Dawley (SD) rats following single oral gavage (PO) doses of 200 mg/kg. Four salt foms of MBX-2982 were investigate in the studies. The tested salts were HCl Form I, HCl salt Form II, mesylate salt and the tosylate salt.
Preparation of samples was performed by solvent precipitation of plasma proteins in a 1 mL/well 96-well plate. Standards were prepared by spiking 10 μL of blank plasma with 10 μL of standard solution (acetonitrile containing MBX-2982 at 0.01, 0.02, 0.05, 0.1, 0.2, 0.5, 1, 2, 5, 10, 20, 50 and 100 μg/mL) and 300 μL of 0.1% formic acid in acetonitrile containing 0.2 μg/mL internal standard. Plasma samples were prepared by adding 10 μL of plasma sample, 10 μL of acetonitrile, and 300 μL of 0.2 μg/mL internal standard in 0.1% formic acid in acetonitrile. After addition of the organic solvents, all samples were vortexed briefly and centrifuged at 3600 rpm for 10 minutes. Some of the samples were diluted 1.3 to 2-fold with blank plasma. An aliquot of the supernatant (25 μL) was transfer to a 1 mL/well 96-well plate and mixed with 200 μL water/ACN (50/50, v/v) and injected into the HPLC.
The suspensions for microcrystalline MBX-2982 (free base) and salt forms of MBX-2982 were prepared in 1% carboxymethylcellulose and 2% tween 80 in water (w/w/v).
Five groups of animals were given microcrystalline and salt forms suspension doses of MBX-2982 orally at 200 mg/kg, respectively. Food was withheld the night before dose and returned nine hours after dosing. Blood samples were collected at 0.25, 0.5, 1, 2, 4, 6, 9, 24, 30 and 48 h post dose. MBX-2982 plasma concentration from these samples was analyzed by a non-validated high performance liquid chromatography in conjunction with mass spectrometry (LC-MS/MS) method.
Plasma concentration-time data for individual animals were analyzed using WinNonlin software (Professional, version 5.0.1; Pharsight Corp.). A non-compartmental model (model 200) was used. Peak area ratios of MBX-2982 to internal standard and concentration were fitted to a quadratic equation (Calibration Curve) with 1/x weighting using a quadratic regression program in Analyst version 1.4.2 (Applied Biosystem Inc). The equations were then used to interpolate the concentrations of MBX-2982 in samples from peak area to internal standard ratio.
The following pharmacokinetic parameters were calculated: • 1) Cmax: Maximum (peak) plasma concentration • 2) Tmax: Time at which Cmax occurred • 3) t1/2: Terminal phase half-life • 4) AUC0-t: Area under the concentration-time curve from time 0 to last measurable concentration • 5) AUC0-inf: Area under the concentration-time curve from time 0 extrapolated to infinity

[2] = Moisture sorption of HCl Form I; type: physicochemical
From the text: A steady ˜0.9 wt % gain was observed between ˜5% and ˜95% RH. A complete desorption occurred upon decreasing relative humidity to ˜5% (˜0.9 wt % loss between ˜95% and ˜5% RH).

[3] = Overnight / elevated RH stress of the crystalline salts; type: physicochemical; conditions: overnight / elevated relative humidity stress
[4] = fasted male SD rats, single PO dose 200 mg/kg, mean ± SD

Structure (SMILES): CCc1cnc(N2CCC(c3nc(COc4ccc(-n5cnnn5)cc4)cs3)CC2)nc1.Cl [HCl Salt Form I, 5-ethyl-2-{4-[4-(4-tetrazol-1-yl-phenoxymethyl)-thiazol-2-yl]-piperidin-1-yl}-pyrimidine hydrochloride]
- Mean plasma concentration of MBX-2982 ([1]; 0.5 h post dose, fasted male SD rats, PO 200 mg/kg, mean ± SD, hydrochloride): 9.79 ± 3.73 µg/mL
- Mean plasma concentration of MBX-2982 ([1]; 1 h post dose, fasted male SD rats, PO 200 mg/kg, mean ± SD, hydrochloride): 15.5 ± 3.15 µg/mL
- Mean plasma concentration of MBX-2982 ([1]; 2 h post dose, fasted male SD rats, PO 200 mg/kg, mean ± SD, hydrochloride): 24.2 ± 3.35 µg/mL
- Mean plasma concentration of MBX-2982 ([1]; 4 h post dose, fasted male SD rats, PO 200 mg/kg, mean ± SD, hydrochloride): 31.4 ± 7.10 µg/mL
- Mean plasma concentration of MBX-2982 ([1]; 6 h post dose, fasted male SD rats, PO 200 mg/kg, mean ± SD, hydrochloride): 28.1 ± 8.46 µg/mL
- Mean plasma concentration of MBX-2982 ([1]; 9 h post dose, fasted male SD rats, PO 200 mg/kg, mean ± SD, hydrochloride): 23.8 ± 6.99 µg/mL
- Mean plasma concentration of MBX-2982 ([1]; 24 h post dose, fasted male SD rats, PO 200 mg/kg, mean ± SD, hydrochloride): 7.43 ± 9.63 µg/mL
- Mean plasma concentration of MBX-2982 ([1]; 24 h post dose, fasted male SD rats, PO 200 mg/kg, mean ± SD, listed as HCl form I, hydrochloride): 7.3 µg/mL
- Fold difference in plasma concentration compared to micronized free-base form ([1]; male SD rats, PO 200 mg/kg, listed as HCl form I, hydrochloride): 94 fold
- Mean plasma concentration of MBX-2982 ([1]; 30 h post dose, fasted male SD rats, PO 200 mg/kg, mean ± SD, hydrochloride): 7.52 ± 12.63 µg/mL
- Mean plasma concentration of MBX-2982 ([1]; 48 h post dose, fasted male SD rats, PO 200 mg/kg, mean ± SD, hydrochloride): 1.08 ± 2.31 µg/mL
- Increase of systemic drug exposure in AUC0-t compared with micro MBX-2982 (free base) ([1]; male SD rats, PO 200 mg/kg, hydrochloride): 2.4 fold
- concentration at 30 h ([1]; male, Sprague-Dawley, rat, plasma, po, 30 h post dose, male SD rats, PO 200 mg/kg, read-out: Plasma level at 30 hours post-dose): 0.00752 µg/mL
- half-life ([1]; male, Sprague-Dawley, rat, plasma, po, fasted male SD rats, single PO dose 200 mg/kg, mean ± SD): 4.01 ± 1.68 h
- AUC(0-t) ([1]; male, Sprague-Dawley, rat, plasma, po, fasted male SD rats, single PO dose 200 mg/kg, mean ± SD, read-out: AUC0-24): 454 ± 98.4 µg·h/mL
- AUC0-inf ([1]; male, Sprague-Dawley, rat, plasma, po, fasted male SD rats, single PO dose 200 mg/kg, mean ± SD, read-out: AUC0-inf): 536 ± 29.9 µg·h/mL
- AUC(0-t) ([1]; male, Sprague-Dawley, rat, plasma, po, fasted male SD rats, single PO dose 200 mg/kg, mean ± SD, read-out: AUC0-t): 571 ± 249 µg·h/mL
- Cmax ([1]; male, Sprague-Dawley, rat, plasma, po, fasted male SD rats, single PO dose 200 mg/kg, mean ± SD, read-out: Cmax): 31.2 ± 7.41 µg/mL
- Tmax ([1]; male, Sprague-Dawley, rat, plasma, po, fasted male SD rats, single PO dose 200 mg/kg, mean ± SD, read-out: Tmax): 7.25 ± 9.25 h
- Weight gain on sorption ([2]; between ~5% and ~95% RH): ~0.9 wt %
- Weight loss on desorption ([2]; between ~95% and ~5% RH): ~0.9 wt %
- Weight loss upon equilibration ([2]; equilibration at ~5% RH): ~0.3 wt %

Structure (SMILES): CCc1cnc(N2CCC(c3nc(COc4ccc(-n5cnnn5)cc4)cs3)CC2)nc1 [Tosylate Salt, 5-ethyl-2-{4-[4-(4-tetrazol-1-yl-phenoxymethyl)-thiazol-2-yl]-piperidin-1-yl}-pyrimidine]
- Mean plasma concentration of MBX-2982 ([1]; 0.5 h post dose, fasted male SD rats, PO 200 mg/kg, mean ± SD): 10.1 ± 2.45 µg/mL
- Mean plasma concentration of MBX-2982 ([1]; 1 h post dose, fasted male SD rats, PO 200 mg/kg, mean ± SD): 13.0 ± 3.33 µg/mL
- Mean plasma concentration of MBX-2982 ([1]; 2 h post dose, fasted male SD rats, PO 200 mg/kg, mean ± SD): 19.7 ± 2.55 µg/mL
- Mean plasma concentration of MBX-2982 ([1]; 4 h post dose, fasted male SD rats, PO 200 mg/kg, mean ± SD): 23.6 ± 6.90 µg/mL
- Mean plasma concentration of MBX-2982 ([1]; 6 h post dose, fasted male SD rats, PO 200 mg/kg, mean ± SD): 20.3 ± 11.2 µg/mL
- Mean plasma concentration of MBX-2982 ([1]; 9 h post dose, fasted male SD rats, PO 200 mg/kg, mean ± SD): 18.6 ± 10.55 µg/mL
- Mean plasma concentration of MBX-2982 ([1]; 24 h post dose, fasted male SD rats, PO 200 mg/kg, mean ± SD): 4.2 ± 5.51 µg/mL
- Mean plasma concentration of MBX-2982 ([1]; 24 h post dose, fasted male SD rats, PO 200 mg/kg, mean ± SD, listed as tosylate): 4.2 µg/mL
- Fold difference in plasma concentration compared to micronized free-base form ([1]; male SD rats, PO 200 mg/kg): 40 fold
- Mean plasma concentration of MBX-2982 ([1]; 30 h post dose, fasted male SD rats, PO 200 mg/kg, mean ± SD): 3.18 ± 5.88 µg/mL
- Mean plasma concentration of MBX-2982 ([1]; 30 h post dose, fasted male SD rats, PO 200 mg/kg, mean ± SD, listed as tosylate): 3.18 µg/mL
- Mean plasma concentration of MBX-2982 ([1]; 48 h post dose, fasted male SD rats, PO 200 mg/kg, mean ± SD): 0.02 ± 0.01 µg/mL
- AUC0-24 [1, 4]: 342 ± 117 µg·h/mL
- AUC0-inf [1, 4]: 393 ± 98.1 µg·h/mL
- AUC(0-t) [1, 4]: 392 ± 98.2 µg·h/mL
- Cmax [1, 4]: 26.1 ± 7.98 µg/mL
- Tmax [1, 4]: 4.00 ± 1.63 h
- t1/2 [1, 4]: 3.20 ± 0.88 h
- Increase of systemic drug exposure in AUC0-t compared with micro MBX-2982 (free base) ([1]; male SD rats, PO 200 mg/kg): 1.7 fold
- Appearance of the material after RH stress [3]: remained a free flowing powder

— patent publication US9150567B2, “Substituted tetrazol-1-yl-phenoxymethyl-thiazol-2-yl-piperidinyl-pyrimidine salts” (CYMABAY THERAPEUTICS, INC., priority 2009, dated 2015)
